Data set [1] concerns wet macular degeneration (subfoveal CNV). As to the kind of experiment: Case report: zeaxanthin pre-loading before verteporfin-laser PDT (Example 1). In kind it is in vivo, human. The source says: Such a candidate became known to the Applicant, in mid to late 2003. Because of certain personal and business connections, they were contacted by a person, who had been told that (i) […] eyesight was deteriorating rapidly, due to macular degeneration, and (ii) they should take care of any business, financial, legal, and other matters as soon as possible, before […] eyesight became even worse. This person made their plight (and their severe depression, due to the very negative prognosis they had received from an expert) known to the Applicant. In response, the Applicant informed the patient that they (the Applicant) had made a number of charitable donations to support research at the Johns Hopkins School of Medicine, where some of the world's foremost experts in macular degeneration work. […] (the Applicant) offered to see whether they could obtain expedited treatment for the patient, by making some phone calls to people they knew who worked there. The patient accepted that offer, and was seen and treated not long thereafter, by a top expert at the Wilmer Eye Institute, a highly respected eye care and research institute affiliated with Johns Hopkins.
This patient had been taking zeaxanthin for a number of weeks, prior to being examined and treated at the Wilmer Eye Institute. Their dosage was believed to be 20 milligrams per day, from taking two 10 milligram capsules (purchased from ZeaVision LLC) per day, usually with meals. They also took various other vitamin supplements during the course of their treatment, and afterwards.
An adult at the time, was suffering from wet macular degeneration.
At about that time, the patient began taking zeaxanthin supplements. It is believed that their typical daily dosage was 20 milligrams, from two 10 milligram capsules per day, usually taken with meals. The patient is also believed to have taken various other nutritional supplements during the relevant span of time, although their full contents, dosages, and durations are not known.
According to notes created by the ophthalmologist at the Wilmer Institute, obtained by the Applicant with approval from the patient, the patient suffered from subfoveal CNV in their right eye. […] According to the patient, the ophthalmologist advised them that their course of treatment likely would require 5 or 6 verteporfin-laser treatments, over a span of up to about 2 years.
His left eye was similar in appearance but questionable in extent, and there was no proven disease progression. Therefore, the ophthalmologist recommended careful monitoring but no PDT at that time.
Despite that advice, the patient continued taking zeaxanthin.

The conditions of data set [2]: even at very high dosages; cited from earlier work.
The next data set deals with wet macular degeneration. As to the kind of experiment: ZeaVision customer survey: zeaxanthin supplements and PDT treatment (Example 2). In kind it is in vivo, human. The source says:
In the summer of 2004, the assignee company (ZeaVision LLC) began searching for customers who were: (i) taking zeaxanthin supplements they had purchased from ZeaVision, and (ii) had received one or more PDT treatments, for wet macular degeneration. They did this by sending postcards to customers, asking them to contact ZeaVision if they had received PDT treatment. Those customers who responded were briefly interviewed by phone by the customer support staff, who asked questions and filled in a worksheet that had been prepared to help guide the interviews. Most of these patients with age-related eye problems are in their 70's or 80's. They could not always provide exact dates when talking from memory during a phone call, and no efforts were made to check their actual medical records, or to consult with the ophthalmologists who performed their PDT treatments. In addition, nearly all of these patients were taking one or more additional vitamin supplements, such as lutein, Coenzyme Q10, and/or the AREDS formulation (all of which are commonly recommended by friends, relatives, and physicians), and at least one patient (identified as patient one, below) also received a steroid injection as part of their PDT therapy. […] Responses from patients who had been taking zeaxanthin for at least a month prior to a PDT treatment include the following examples: […]

In data set [3] the target is Pi isoform of glutathione-S-transferase (GSTP1) (Homo sapiens, UniProt P09211). The following applies: in vitro conditions; cited from earlier work.
Data set [4] concerns vascular endothelial growth factor (VEGF). The note with it: verteporfin-laser treatment; cited from earlier work.
In data set [5] the test system is inflammatory chorioretinal diseases. The following applies: in vivo; cited from earlier work.
The subject of a further data set is inflammatory cytokines. The note with it: cited from earlier work.
The subject of the next data set is poultry. The note with it: compared against preparation of dietary 3R,3′R stereoisomer; test in Spain; cited from earlier work.
Another data set deals with retina. The note with it: in vivo, po; cited from earlier work.
Setting [6] is: right eye, January 2004, six months after PDT.
Setting [7] is: right eye, October 2003, three months after PDT, zeaxanthin 20 mg/day.
Setting [8] is: Patient one, ZX from June 2004, first and only PDT about 2 months later, also steroid injection.

Entries after “also recorded” stand apart in the source; their conditions may differ.

Pi isoform of glutathione-S-transferase (GSTP1), sequence (P09211 whole entry, canonical isoform): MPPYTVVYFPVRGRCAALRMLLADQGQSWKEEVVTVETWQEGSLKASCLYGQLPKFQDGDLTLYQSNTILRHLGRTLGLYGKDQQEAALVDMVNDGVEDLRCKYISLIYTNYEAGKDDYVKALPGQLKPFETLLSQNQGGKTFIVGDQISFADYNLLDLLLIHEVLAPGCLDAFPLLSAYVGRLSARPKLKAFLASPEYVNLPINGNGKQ

`CC1=C(/C=C/C(C)=C/C=C/C(C)=C/C=C/C=C(C)/C=C/C=C(C)/C=C/C2=C(C)C[C@@H](O)CC2(C)C)C(C)(C)C[C@H](O)C1` [zeaxanthin]: the “findings in the eye not previously treated with PDT” value in data set [1] (left eye, March 2004, patient taking zeaxanthin, no PDT so far) is reported as “growth of choroidal neovascularization compared to January 2004”. For the same compound, the “ophthalmologist's assessment of PDT results, as orally reported by the patient” value in data set [1] (left eye, three months after PDT of March 2004) is “results were good”. In data set [1] (setting [6]), the “biomicroscopic findings (subretinal hemorrhage)” value is recorded as “clearing of the subretinal hemorrhage that was noted along the inferonasal aspect of the treated area” and the fluorescein angiography entry was “still showed some increased staining in the area where the hemorrhage had cleared”. Moreover, in [1] (right eye, March 2004), the “leakage from CNV” value is recorded as “no new leakage from CNV to suggest the need for any treatment”. Also, in data set [1] (setting [7]), the “biomicroscopic findings (subretinal hemorrhage and fluid)” value is on record as “clearing of much of the subretinal hemorrhage along the nasal aspect of the posterior pole with no new subretinal fluid”; the fluorescein angiography entry is reported as “no fluorescein leakage to suggest the need for any additional treatment at this time except at the inferonasal aspect of the treated area”. The “ophthalmologist's assessment of the PDT results” value in data set [1] (right eye, three months after first PDT, zeaxanthin 20 mg/day) is “much better than expected; also recorded: far better than expected”. The “pathological changes in animal tests” value in data set [2] is given as “did not cause any pathological changes, of any sort”. In addition, the “need for further PDT sessions (doctor's statement)” value with wet macular degeneration (Patient four, ZX begun before second PDT session, first session without ZX did not stabilize) is on record as “appeared to not need any more PDT sessions”. In the data set with wet macular degeneration (setting [8]), the “need for further PDT treatments (doctor's statement)” value is reported as “may not need to have any more treatments” and the “results of PDT treatment” value is given as “results were good”. Further, the “ophthalmologist's assessment of eyes at followup” value with wet macular degeneration (Patient three, October 2004) is “their eyes had stabilized”. Moreover, the “doctor's assessment of eyes at followup” value in the data set with wet macular degeneration (Patient three, ZX for some months before second PDT in May 2004, late June 2004) was “their eyes had gotten better, and appeared to be stable”. The “vision in PDT-treated left eye” value in the data set with wet macular degeneration (Patient two, 10 mg/day ZX from May 2004, four PDT sessions April-October 2004, October 2004) is 20/30. In the data set with wet macular degeneration (Patient two, 10 mg/day ZX, October 2004), the “patient's description of their results” value was “super-good”. The “ophthalmologist's assessment of sight” value in the data set on wet macular degeneration (Patient two, 10 mg/day ZX, PDT on left eye) was “sight restored and improved”. In the data set with wet macular degeneration (all patients surveyed), the adverse side effects entry is reported as “did not cause any adverse side effects of any sort” and the “interference with efficacy of PDT treatment” value is recorded as “did not interfere with the efficacy of PDT treatment”. In addition, the overall benefit result in the data set with wet macular degeneration (in at least some patients) is given as “provided at least some benefits”. Besides, the “condition of PDT-treated eye (doctor's statement)” value in the data set on wet macular degeneration (parent of respondent OD, PDT on right eye after three months of ZX) was “appeared to be stable”. In addition, in the data set with wet macular degeneration (several respondents with PDT in one eye only), the “condition of fellow eye with dry macular degeneration (respondents' statements)” value is listed as “remain stable, or in some cases improve”. Also, the “binding affinity of macular enzymes” value in data set [3] is reported as “relatively high affinity”.

Take verteporfin: the “release of hormones that increase blood vessel growth (VEGF)” value in [4] was “stimulates, rather than suppresses”. The “performance relative to verteporfin treatment of wet macular degeneration” value in data set [5] was “tended to perform better, and more effectively”.

As to `CC1=C(/C=C/C(C)=C/C=C/C(C)=C/C=C/C=C(C)/C=C/C=C(C)/C=C/C2=C(C)C(=O)[C@@H](O)CC2(C)C)C(C)(C)C[C@H](O)C1=O` [astaxanthin], the “effect on inflammatory and similar responses” value in the data set with inflammatory cytokines is “can help reduce inflammatory and similar responses”.

Turning to `CC1=C[C@H](O)CC(C)(C)[C@H]1/C=C/C(C)=C/C=C/C(C)=C/C=C/C=C(C)/C=C/C=C(C)/C=C/C1=C(C)C[C@@H](O)CC1(C)C` [lutein, reference compound], in data set [3], the “binding affinity of macular enzymes” value was “will not bind to lutein with any significant affinity”.

On to meso-zeaxanthin, for which the “performance as colour additive for poultry” value with poultry is “did not perform satisfactorily”.

Take `CC1=C(/C=C/C(C)=C/C=C/C(C)=C/C=C/C=C(C)/C=C/C=C(C)/C=C/C2=C(C)C(=O)CCC2(C)C)C(C)(C)CCC1=O` [canthaxanthin]: the retinal deposition entry in the data set on retina is “abnormal retinal deposition”.

The values are drawn from patent US7941211B2, “Preloading with macular pigment to improve photodynamic treatment of retinal vascular disorders” (ZeaVision, LLC., priority 2003, dated 2011).
